Converted amounts (≈) assume the structure as drawn. “And” between values parts separate entries of the source, which are not always exact repeats. Identical values can stand only once.
Legend:
E. faecium = experiment: MIC susceptibility testing, E. faecium; type: cell-based
Protocol: (§1) Susceptibility testing for all aerobic organisms with the exception of Streptococcus pneumoniae was performed by two-fold serial antibiotic dilutions in Mueller-Hinton Broth supplemented with 50 μg/ml Ca^2+ unless otherwise noted. Susceptibility testing for S. pneumoniae was performed by two-fold serial antibiotic dilutions in Brain-Heart-Infusion Broth supplemented with 50 μg/ml Ca^2+ unless otherwise noted. Actively growing broth cultures were diluted to contain […] by adjusting to an OD600 of 0.2-0.3. They were then diluted a further 1:100 in fresh sterile broth. The assays were performed in duplicate in sterile 96-well microtitre plates in a total volume of 200 μl (160 μl broth, 20 μl antimicrobial agent, 20 μl inoculum) in a concentration range from 64 μg/ml to 0.06 μg/ml. […] Clinical isolates of Clostridium difficile were tested in Wilkins-Chalgren Anaerobe Agar under anaerobic conditions. In all cases, vancomycin was used as a reference antibiotic

S. aureus = experiment: MIC susceptibility testing, S. aureus; type: cell-based, Staphyloccus aureus
Protocol: as §1

In the case of `CCC(C)[C@@H]1NC(=O)[C@H](C(C)C)NC(=O)[C@H]2NC(=O)CNC(=O)[C@@H]3CS[C@@H](C)[C@@H](NC(=O)[C@H]4CSC[C@H](N)C(=O)N[C@@H](CO)C(=O)NCC(=O)N[C@@H](Cc5c[nH]c6ccccc56)C(=O)N[C@@H](C(C)C)C(=O)N4)C(=O)N[C@@H](CC(C)C)C(=O)N[C@@H](C(=O)N[C@@H](C(C)CC)C(=O)N[C@@H](CCC(=O)O)C(=O)N3)[C@H](C)SC[C@H](NC1=O)C(=O)N[C@@H](C)C(=O)N[C@H](C(=O)NCCO)C[S+]([O-])[C@H]2C` (stereo partly shown) [Compound III, Actagardine N-[2-ethanolamine]monocarboxamide], the MIC (E. faecium; E. faecium 19579, Table 2) is reported as 16 µg/mL (≈ 8.28 µM), the MIC (E. faecium; E. faecium 19579, Vancomycin sensitive enterococci, Table 3) is reported as 16 µg/mL (≈ 8.28 µM) and the MIC (E. faecium; E. faecium 7131121, Table 2) is reported as 64 µg/mL (≈ 33.1 µM). For the same compound, the MIC (E. faecium; E. faecium 7634337, Vancomycin resistant enterococci, Table 3) was >32 µg/mL, the MIC (E. faecium; E. faecium 7662769, Vancomycin resistant enterococci, Table 3) was >32 µg/mL and the MIC (E. faecium; E. faecium 7865229, Vancomycin sensitive enterococci, Table 3) was >32 µg/mL. For the same compound, the MIC (E. faecium; E. faecium 7865532, Vancomycin resistant enterococci, Table 3) was >32 µg/mL, the MIC (E. faecium; E. faecium 9709024, Vancomycin resistant enterococci, Table 3) was >32 µg/mL and the MIC (E. faecium; E. faecium 9710577, Vancomycin resistant enterococci, Table 3) was >32 µg/mL. For the same compound, the “Minimal Inhibitory Concentration (MIC)” value (E. faecium; E. faecium (VRE) (clinical isolate), Table 5, first isolate) was 64 µg/mL, the “Minimal Inhibitory Concentration (MIC)” value (E. faecium; E. faecium (VRE) (clinical isolate), Table 5, second isolate) was 4 µg/mL and the “Minimal Inhibitory Concentration (MIC)” value (E. faecium; E. faecium (VSE) ATCC 19579, Table 5) was 16 µg/mL. The “Minimal Inhibitory Concentration (MIC)” value (E. faecium; E. faecium (VSE) ATCC 29212, Table 5) was 4 µg/mL, the MIC (E. faecium; E. faecium GRL05031, Vancomycin resistant enterococci, Table 3) was 4 µg/mL (≈ 2.07 µM) and the MIC (E. faecium; E. faecium GRL05032, Vancomycin resistant enterococci, Table 3) was 4 µg/mL (≈ 2.07 µM). For the same compound, the MIC (E. faecium; E. faecium GRL05033, Vancomycin resistant enterococci, Table 3) was 8 µg/mL and 4 µg/mL, the MIC (E. faecium; E. faecium GRL05034, Vancomycin resistant enterococci, Table 3) was 16 µg/mL (≈ 8.28 µM) and the MIC (E. faecium; E. faecium GRL05035, Vancomycin resistant enterococci, Table 3) was 16 µg/mL (≈ 8.28 µM). It also gave an MIC (S. aureus; S. aureus 2, Vancomycin intermediate, Table 3) of 32 µg/mL (≈ 16.6 µM), an MIC (S. aureus; S. aureus 26, Vancomycin intermediate, Table 3) of 32 µg/mL (≈ 16.6 µM) and an MIC (S. aureus; S. aureus 12232, Methicillin resistant, Table 3) of 8 µg/mL (≈ 4.14 µM). The MIC (S. aureus; S. aureus G15, Methicillin sensitive, Table 3) was >32 µg/mL, the MIC (S. aureus; S. aureus G20, Methicillin sensitive, Table 3) was 32 µg/mL (≈ 16.6 µM) and the MIC (S. aureus; S. aureus G22, Methicillin sensitive, Table 3) was 32 µg/mL (≈ 16.6 µM). The MIC (S. aureus; S. aureus G23, Methicillin sensitive, Table 3) was 32 µg/mL (≈ 16.6 µM), the MIC (S. aureus; S. aureus G28, Methicillin sensitive, Table 3) was 16 µg/mL (≈ 8.28 µM) and the MIC (S. aureus; S. aureus G30, Methicillin sensitive, Table 3) was 32 µg/mL (≈ 16.6 µM). For the same compound, the MIC (S. aureus; S. aureus G31, Methicillin sensitive, Table 3) was >32 µg/mL, the MIC (S. aureus; S. aureus G32, Methicillin sensitive, Table 3) was 32 µg/mL (≈ 16.6 µM) and the MIC (S. aureus; S. aureus G33, Methicillin sensitive, Table 3) was 32 µg/mL (≈ 16.6 µM). For the same compound, the MIC (S. aureus; S. aureus G35, Methicillin sensitive, Table 3) was >32 µg/mL, the MIC (S. aureus; S. aureus MI, Vancomycin intermediate, Table 3) was 32 µg/mL (≈ 16.6 µM) and the MIC (S. aureus; S. aureus Mu3, Vancomycin intermediate, Table 3) was 32 µg/mL (≈ 16.6 µM). For the same compound, the MIC (S. aureus; S. aureus Mu50, Vancomycin intermediate, Table 3) was 32 µg/mL (≈ 16.6 µM), the MIC (S. aureus; S. aureus NJ, Vancomycin intermediate, Table 3) was >32 µg/mL and the MIC (S. aureus; S. aureus R33, Table 2) was 16 µg/mL (≈ 8.28 µM). For the same compound, the MIC (S. aureus; S. aureus R34, Methicillin resistant, Table 3) was 8 µg/mL (≈ 4.14 µM), the MIC (S. aureus; S. aureus R36, Methicillin resistant, Table 3) was 16 µg/mL (≈ 8.28 µM) and the MIC (S. aureus; S. aureus R39, Methicillin resistant, Table 3) was >32 µg/mL. The MIC (S. aureus; S. aureus R40, Methicillin resistant, Table 3) was 32 µg/mL (≈ 16.6 µM), the MIC (S. aureus; S. aureus SH1000, Methicillin sensitive, Table 3) was 16 µg/mL (≈ 8.28 µM) and the MIC (S. aureus; S. aureus SH1000, Table 2) was 8 µg/mL (≈ 4.14 µM). It also gave an MIC (S. aureus; S. aureus V99, Vancomycin intermediate, Table 3) of 16 µg/mL (≈ 8.28 µM), an MIC (S. aureus; S. aureus W71, Methicillin resistant, Table 3) of 32 µg/mL (≈ 16.6 µM) and an MIC (S. aureus; S. aureus W74, Methicillin resistant, Table 3) of 32 µg/mL (≈ 16.6 µM). For the same compound, the MIC (S. aureus; S. aureus W96, Methicillin resistant, Table 3) was >32 µg/mL.

— patent US8329644B2, “Lantibiotic-based compounds having antimicrobial activity” (Novacta Biosystems Limited, priority 2007, dated 2012)
